Columns and labels:
subcutaneous KPC tumors = test: RNAseq cell enrichment analysis of subcutaneous KPC tumors; assay type: in vivo, mice; settings: Q6D treatment, sacrificed on Day 26, compared to placebo
Description: RNAseq analysis was performed on tumor samples from mice with subcutaneous KPC tumors sacrificed on Day 26 following treatment (Q6D) with bis RvE1 Mg-di-lysinate (Compound 1) compared to placebo. […] Darker color indicates increased gene expression, for various immune cells and other cells, as listed across the top of the heatmap. […] Namely, these unexpected results may be due to durable effects on the tumor microenvironment including changes in immune cell phenotype and the T-cell compartment such as T-cell priming and increased tumor-infiltrating lymphocytes.

MC-38 cells = test: MC38 model of colorectal cancer, subcutaneous tumors; assay type: in vivo, C57BL/6J male mice; settings: 300 ug/kg, SC, single agent, P<0.05 vs placebo
Description: A representative compound of Formula IV, RvE1 magnesium dilysinate, was tested for efficacy in several mouse models of cancer, including the Panc2-H7 model of pancreatic cancer, the Lewis lung carcinoma (LLC) model, the MC38 model of colorectal cancer, and the B16F10 model of melanoma. These models are well established, highly tumorigenic syngeneic models in which murine cancer cell lines are injected subcutaneously (SC) into the dorsum of C57BL/6J mice. If left untreated, these tumors grow rapidly and lead to death or euthanasia, per protocol. As detailed below in Examples 1-9 and the accompanying figures, bis RvE1 Mg-di-lysinate (Compound 1) was unexpectedly effective as an anti-cancer agent in each of these model systems when administered in a less than daily (LTD) dosing regimen. […] Without being bound by any theory, the surprising efficacy of LTD dosing of resolvins in the cancer model systems described here may be the result of durable effects on the tumor microenvironment including changes in immune cell phenotype, vascularization, stromal phenotype, and antigen presentation, as well as durable effects on the T-cell compartment such as T-cell priming and increased tumor-infiltrating lymphocytes. […]

Q: How did the “immune cell marker gene expression in tumors (RNAseq heatmap)” value (subcutaneous KPC tumors) turn out when `CC[C@@H](O)/C=C/C=C\C[C@@H](O)/C=C/C=C/C=C\[C@@H](O)CCCC(=O)O` [bis RvE1 Mg-di-lysinate] was run?
A: increase in markers of monocytes and DC cell subset (cDCs, pDCs, and iDCs) and markers of NK, CD8+ T cells, Th1 cells, and memory T cells (CD8+ and CD4+)

Q: And the “tumor volume (Day 15 vs Day 0)” value (MC-38 cells; Q3D)?
A: effective as a single agent

Q: What about the “tumor volume (Day 15 vs Day 0)” value (MC-38 cells; QD) of the same compound?
A: effective as a single agent

— patent US11986512B2, “Compositions and methods for cancer therapy” (Thetis Pharmaceuticals LLC, priority 2021, dated 2024)
